The values that follow come from patent publication US20190292572A1, “Novel protic or phosphate-based ionic liquids useful for lignocellulosic processing” (priority 2016, published 2019).

Where two headings read alike, the source gives them in different places.

Data set [1] can be described thus: pH of ILs. Format: physicochemical.
Data set [2] relates to cellulases. The note with it: previous literatures; cited from earlier work.
Data set [3] is described as follows: Biomass pretreatment using PBIL: enzymatic saccharification glucose yield.
A short description of data set [4]: One-pot IL pretreatment and enzymatic saccharification (sugar yield). Details: species or system Panicum virgatum. The note with it: for yield of glucose / yield of xylose: 160 °C. The procedure:
FIG. 3. Effect of IL type on the sugar yield (pretreatment: 10 wt % SG loading, 90 wt % IL, 140° C., 1 h, saccharification: 10 wt % IL, 10 mg protein per g switchgrass, 50° C., 72 h.
FIG. 4A. Effects of some parameters on the sugar yield: Biomass loading at pretreatment. Normal operation conditions: pretreatment, 10 wt % SG loading, 90 wt % IL, 160° C., 0.5 h (3 h for ecucalyptus); saccharification, 10 wt % IL, 20 mg protein/g SG, 50° C., 72 h.
FIG. 4B. Effects of some parameters on the sugar yield: Temperature/time. Normal operation conditions: pretreatment, 10 wt % SG loading, 90 wt % IL, 160° C., 0.5 h (3 h for ecucalyptus); saccharification, 10 wt % IL, 20 mg protein/g SG, 50° C., 72 h.
In a typical procedure, SG (100 mg) was mixed with ([EOA][OAc]) at a 10% biomass loading in a 15 mL capped glass pressure tube and pretreated in a convection oven at 160° C. for 0.5 h. Untreated raw SG (30-40 mesh) was used as a control. […] Enzymatic saccharification step was operated at 50° C. for 72 hrs with constant agitation on an Enviro Genie SI-1200 rotator platform (Scientific Industries, Inc., Bohemia, N.Y.). The loading of enzyme cocktails (9CTec2/HTec2, v/v) is 20 mg EP per g SG.

A short description of data set [5]: IL pretreatment and saccharification of different feedstocks: corn stover. To be noted: corn stover (FIG. 4D). The procedure:
(§1) FIG. 4D. Effects of some parameters on the sugar yield: Biomass category. Normal operation conditions: pretreatment, 10 wt % SG loading, 90 wt % IL, 160° C., 0.5 h (3 h for ecucalyptus); saccharification, 10 wt % IL, 20 mg protein/g SG, 50° C., 72 h.
(§2) Thereafter, we explored the feasibilities of [EOA][OAc] for the pretreatment of different feedstocks including mixed feedstocks of SG and eucalyptus (1:1, w/w), eucalyptus (EU), and corn stover (CS).

Data set [6] is described as follows: IL pretreatment and saccharification of different feedstocks: eucalyptus. To be noted: 3 h pretreatment (FIG. 4D). The procedure:
as §1, §2

Data set [7] is described as follows: IL pretreatment and saccharification of different feedstocks: mixed feedstocks. The note with it: mixed feedstocks SG and eucalyptus 1:1 (FIG. 4D). The procedure: as §1, §2
The nature of data set [8]: Compositional analysis of switchgrass after IL pretreatment. On the set-up: species or system Panicum virgatum. The note with it: higher temperature pretreatment vs untreated. From the text: Thus, compositional analysis of untreated, and pretreated SG with [EOA][OAc] at different temperatures and time was studied and the results were summarized in Table 4. Solid recovery refers to the mass percentage of biomass (dry weight) recovered from the original biomass load. After washing, 55-81% of the biomass was recovered. […] Untreated SG contained 29.6% glucan, 18.4% xylan and 20% acid insoluble lignin (entry 1). […] This trend was most obvious after pretreatment under higher temperature where lignin content was reduced by 77% (untreated: 20% vs. pretreated: 4.7%). […] IL are consistent with our previous report by using basic ILs such as [Ch][Lys] and [C2C1Im][Lys].^13
Compositional analysis of SG before and after pretreatment was performed using NREL acidolysis protocols (LAP) LAP-002 and LAP-005, which was described in our previous work.^13 In a typical process, 200 mg of biomass and 2 mL of 72 wt % H2SO4 were incubated at 30° C. while shaking at 300 rpm for 1 h. The solution was diluted to 4 wt % H2SO4 with 56 mL of DI water and autoclaved for 1 h at 121° C. […] Carbohydrate concentrations were determined from the filtrate using an Agilent HPLC 1200 Series equipped with a Bio-Rad Aminex HPX-87H column and a Refractive Index detector. […] Acid insoluble lignin was quantified gravimetrically from the solid after heating overnight at 105° C. […]

Data set [9] relates to Saccharomyces cerevisiae strain BY4741. Description: Toxicity test: yeast growth in IL solution. Format: cell-based. The procedure: FIG. 5A. Toxicity test of [EOA][OAc] (A) and effect of biomass loading on sugar yield (B). Conditions: yeast strain: Saccharomyces cerevisiae strain BY4741, growth condition: in 24-well microplate with orbital-high intensity shaking/31° C./in IL solution (10 g/L glucose in each IL solutions), volume of the cell culture was 0.5 mL.
For toxicity screening, a wild type S. cerevisiae BY4741 strain was technically used and it was immersed in various IL concentrations from 2.5 to 15 wt %.

Data set [10] in a line: One-pot pretreatment and SSF (cellulosic ethanol production). Details: species or system Panicum virgatum. The note with it: for theoretical ethanol yield: SSF. The procedure:
FIG. 6A. Process optimization of one-pot ethanol fermentation after [EOA][OAc] pretreatment. Effect of yeast loading on ethanol fermentation. Conditions: pretreatment, 40 wt % SG loading, 60 wt % IL, 160° C., 0.5 h; saccharification, 5 wt % IL, 20 mg protein/g SG, pH 5, 50° C., 24 h; fermentation, 37° C., 72 h.
FIG. 6B. Process optimization of one-pot ethanol fermentation after [EOA][OAc] pretreatment. Illustration of the glucose consumption and ethanol production during SSF. Conditions: pretreatment, 40 wt % SG loading, 60 wt % IL, 160° C., 0.5 h; saccharification, 5 wt % IL, 20 mg protein/g SG, pH 5, 50° C., 24 h; fermentation, 37° C., 72 h.
FIG. 7. Illustration of the glucose consumption and ethanol production during SSF. Conditions: pretreatment, 40 wt % SG loading, 60 wt % IL, 160° C., 0.5 h; saccharification, 5 wt % IL, 20 mg protein/g SG, 50° C., 24 h; fermentation, 37° C., 72 h.
In a typical procedure, SG (100 mg) was mixed with ([EOA][OAc]) at a 40% biomass loading in a 15 mL capped glass pressure tube and pretreated in a convection oven at 160° C. for 0.5 h. After pretreatment, the pretreated slurry was diluted with DI-water to obtain a final IL concentration of 5 wt %, and pre-saccharificated for 24 h under the same aforementioned conditions. Simultaneously, wide type yeast strain BY4741 was prepared. After the addition of yeast strain, the SSF step was conducted for 72 hrs.

Setting [11] is: optimized conditions, short time pretreatment.
[12] abbreviates: T/t 140/1, IL concentration not given.

On to `NCCO.O=P(O)(O)O` [EA-dihydrogenphosphate], for which, in data set [1] (Table 2), the pH amounted to 4.5.

Regarding `NCCCC[C@H](N)C(=O)O.NCCO` [EA-lysinate-m 1], the pH in [1] (Table 2) came out at 9.

Consider `CC(=O)[O-].CCn1cc[n+](C)c1` [[C2C1Im][OAc], 1-ethyl-3-methyl imidazolium acetate], for which, in data set [2], the “IL concentration known to deactivate cellulases” value is listed as about 5 wt %.

For the compound `CCCCn1cc[n+](C)c1.[Cl-]` [[C4C1Im][Cl], 1-n-butyl-3-methylimidazolium chloride], the “IL concentration known to deactivate cellulases” value in [2] is about 5 wt %.

`C[N+](C)(C)CCO.C[N+](C)(C)CCO.O=P([O-])([O-])O` [[Ch]2[HPO4]]: the pH in [1] is recorded as 8. For the same compound, the “Enzymatic Saccharification Glucose yield %” value is recorded as 61.9% in data set [3] (T/t 140/1, IL 20%); 55.1% in data set [3] (T/t 140/1, IL 50%); 49.7% in data set [3] (T/t 140/1, IL 100%).

In [1], `C[N+](C)(C)CCO.C[N+](C)(C)CCO.C[N+](C)(C)CCO.O=P([O-])([O-])[O-]` [[Ch]3[PO4]] registered a pH of 12.5. Also, the “Enzymatic Saccharification Glucose yield %” value turned out to be 54.6% in data set [3] (T/t 140/1, IL 20%); 61.1% in [3] (T/t 140/1, IL 50%); 61.8% in data set [3] (T/t 140/1, IL 100%).

On to `C[N+](C)(C)CCO.O=P([O-])(O)O` [[Ch][H2PO4], Cholinium dihydrogen-phosphate], for which the pH in data set [1] and in data set [1] (Table 2) was 4.5 each time. Further, the “Enzymatic Saccharification Glucose yield %” value in [3] (T/t 140/1, IL 20%) is reported as 17.5%; in data set [3] (T/t 140/1, IL 50%) it was 16.9%; in [3] (T/t 140/1, IL 100%), 14.4%.

For the compound `CC(=O)O.NCCO` [[EOA][OAc], ethanolamine acetate], the glucose yield is about 85% in [4] (10% SG loading, 160 °C pretreated sample); “comparative glucose yield with 20 wt % starting biomass loading” in data set [4] (40 wt % starting biomass loading (60 wt % IL), diluted to 5 wt % IL in saccharification (FIG. 5B)); “Around 60%” in [4] (SG loading 25 wt %); “more than 75%” in [4] (biomass loading 5 to 20 wt % at pretreatment (FIG. 4A)). For the same compound, the yield of glucose in [4] (pretreatment time 0.5 hrs) worked out at 85%; in data set [4] (pretreatment time 3 hrs) it was 87%. For the same compound, the yield of xylose is listed as 35% in data set [4] (pretreatment time 0.5 hrs) and 42% in data set [4] (pretreatment time 3 hrs). For the same compound, in [4] (from 140 to 160 °C), the “increase in digestibility of SG” value is reported as “over 40%”. Further, the “sugar yield, IL screening” value in [4] (low pretreatment temperature and low enzyme loading (FIG. 3: 140 °C, 1 h, 10 mg protein per g switchgrass)) was “best performance”. The “glucose (monomers) liberated from switchgrass” value in data set [4] (setting [11]) is reported as 85%. In addition, the “xylose (monomers) liberated from switchgrass” value in data set [4] (setting [11]) is listed as 35%. For the same compound, the entries for the “digestibility of SG” value in [4] (pretreatment 140 °C (FIG. 4B)) and in data set [4] (pretreatment 160 °C (FIG. 4B)) were 60% and 85%, respectively. For the same compound, the “glucose released from SG” value in [4] (pretreatment 160 °C, 15 min) worked out at 45%. For the same compound, the values for the sugar yields result in [5], in [6] and in [7] were “best performance”, “low sugar yields” and “low sugar yields”, respectively. Further, the “lignin content reduced by” value in data set [8] turned out to be 77%. The yeast growth entry in data set [9] (5 wt % IL concentration) was “better yeast growth”. Also, the “IL titer at which better yeast growth occurs” value in data set [9] (IL concentrations from 2.5 to 15 wt %, FIG. 5A) is recorded as “below 10 wt %”. Moreover, the theoretical ethanol yield in data set [10] (40 wt % SG loading at pretreatment) was 70%; in data set [10] (yeast loading 0.1 wt % (1 g/L)) it was “around 70%”. Also, the ethanol produced in data set [10] (from the glucan present in 1 kg of SG) is reported as 117 g. Besides, the “overall conversion in one-pot” value in [10] (glucan balance, FIG. 7) is reported as 70%. In addition, the “glucose from saccharification converted to ethanol” value in data set [10] (glucan/glucose balance, FIG. 7) is given as “over 90%”. For the same compound, the “ethanol yield versus yeast loading” value in data set [10] (yeast loading increased from 0.01 to 0.21 wt % (FIG. 6A)) is on record as “no significant difference in ethanol yield”.

For `CCCCN(CCCC)CCCC.O=P(O)(O)O` [[N444][H2PO4]], in [1] (Table 5), the “ILs pH” value was found to be 4.5. In addition, the “Enzymatic Saccharification Glucose yield %” value was found to be 13.4 ± 2.6% in [3] (T/t 50/3) and 16.2 ± 0.6% in data set [3] (T/t 90/3).

Take “Cholinium bicarbonate [[Ch][Bicarbonate]]”: the “Enzymatic Saccharification Glucose yield %” value in data set [3] (setting [12]) is listed as 52.8 ± 4.3%.

Consider dimethylammonium dimethylcarbamate, for which, in data set [3] (setting [12]), the “Enzymatic Saccharification Glucose yield %” value amounted to 55.2 ± 3.9%.
